Source: US20250187998A1, “IDENTIFICATION OF SOIL BACTERIA-ENRICHING AGENTS AND METHODS OF USE THEREOF” (California Institute of Technology, priority 2023, published 2025)

What was measured:
Pseudomonas putida [1] = assay: Soil competition (soil bacteria-enrichment) assay, qPCR with strain-specific probes; assay type: cell-based; conditions: 1 g non-sterile agriculture soil, 300 μL exudates, 20 mM target carbon substrate, four species pooled, 72 hours, qPCR (FIG. 24)
Description: (§1) In some embodiments, the competition assay comprises adding one or more bacteria of interest to non-sterile agriculture soil at an equal starting OD and incubating the soil with plant root exudate and a desired concentration of candidate soil-bacteria enriching agent. In some embodiments, the non-sterile agriculture soil further comprises one or more plants. Methods of obtaining plant root exudate are known in the art. All such methods are suitable for use in the methods disclosed herein. For example, in some embodiments, plant root exudate is obtained by surface sterilizing Arabidopsis thaliana seeds, sowing the seeds on an agar plate and growing the seeds for 7 days. In some embodiments, after 7 days, the seedlings are transferred to a multi-well plate for exudate collection. In some embodiments, exudate collection comprises adding MS media to each well of the multi-well well plate along with about 50, 7-day old, Arabidopsis seedlings. The seedlings are then incubated with shaking in growth chamber for about 24 hours. After 24 hours, the exudates are collected, pooled, and filter sterilized. In some embodiments, the treated non-sterile agriculture soil is incubated with plant root exudate and a desired concentration of soil bacteria-enriching agent for about 3 days. After 3 days, DNA is extracted from soil and the concentration of the bacteria in the soil is measured. For example, in some embodiments, qPCR analysis is conducted using a universal bacteria primer “ALL” and species-specific primers. The threshold cycle (Ct) value for the universal primer is then subtracted from each of the species-specific primers to get the dCt or ΔCt.
(§2) The ability of the identified compounds to effectively manipulate the soil microbial community was examined using a series of soil bacteria-enrichment experiments. First, the ability of the candidate selective carbon substrates to influence microbial competition was tested using a series of soil competition experiments. 1 g of non-sterile agriculture soil was added to a 2 mL tube along with 300 μL of exudates, 20 mM target carbon substrates and an OD 3.33 of all four species pooled at an equal starting concentration. Tubes were collected after 72 hours and stored in −80° C. before processing. DNA was then extracted and screened using qPCR with probes unique to each strain to determine the abundance of each strain in the mixed community.

Azospirillum brasilense = assay: as above; assay type: cell-based; conditions: 1 g non-sterile agriculture soil, 300 μL exudates, 20 mM target carbon substrate, four species pooled, 72 hours, qPCR (FIG. 21)
Description: as §1, §2

Bacillus subtilis = assay: as above; assay type: cell-based; conditions: 1 g non-sterile agriculture soil, 300 μL exudates, 20 mM target carbon substrate, four species pooled, 72 hours, qPCR (FIG. 23)
Description: as §1, §2

Pseudomonas putida [2] = assay: Persistence of P. putida bioinoculant in non-sterile soil over time (qPCR, ΔCt); assay type: cell-based; conditions: initial density 10^5 cfu/g soil, exudate solution +/- 20 mM PEA, 28° C., sampled every 3 days, qPCR ΔCt (FIG. 25-26)
Description: FIG. 25-26 are graphs showing persistence of a P. putida bioinoculant over time. […] Lower ΔCt indicates higher abundance. P. putida was introduced into non-sterile soil at an initial density of 10^5 cfu/g soil in exudate solution +/−20 mM phenylethylamine (PEA) at day 0 and allowed to incubate at 28° C. Two replicates are shown for each condition. Every 3 days, soil was collected, and DNA was extracted to probe the concentration of P. putida using 16S primers. Template DNA for qPCR was normalized to ˜1 ng/reaction.

P. putida KT2440 (PP) = assay: Enrichment of bioinoculant in soil in the presence of plants (bulk soil and root qPCR); assay type: in vivo, Pseudomonas putida; Arabidopsis thaliana seedlings; conditions: agriculture soil in magenta box, +/- 20 mM phenylethylamine, 10^5 cells per gram of soil, four Arabidopsis seedlings, 1 or 2 weeks
Source text: Some embodiments herein are directed to a method of assessing whether a given soil bacteria-enriching agent enriches a specific species of bacteria in a soil microbiome comprising at least one additional bacterial species when one or more plants are being supported by the soil. In some embodiments, the method comprises adding a known concentration of one or more species of bacteria to soil along with a soil bacteria-enriching agent. In some embodiments, the bacteria comprise Pseudomonas putida (PP), Azotobacter vinelandii (AV), Bacillus subtilis (BS), and/or Azospirillum brasilense (AB). In some embodiments, soil moisture at the start of the experiment is adjusted a desired level for growth of the plant. One or more plants are then planted in the treated soil and allowed to grow for about 1, 2, 3, 4, 5, 6, 7, 8, 9, 10, 11, 12, 13, 14, 15, 16, 17, 18, 19, 20, 21, 22, 23, 24, 25, 26, 27, 28, 29, 30, or 31 days or more, or for an amount of time that is in a range that is defined by any two of the preceding values. […] The quantity of one or more species of bacteria in the soil and/or the plant roots is then determined and one or more soil bacteria-enriching agents that uniquely promote the growth and attraction of a desired bacterial species as compared to one or more other bacteria in the soil microbiome are identified. […]

Compound: CCCCCCCCCC(=O)O [capric acid, Capric acid]
- enrichment of Pseudomonas putida in agricultural soils with native microbiome (Pseudomonas putida [1]): can be used to enrich Pseudomonas putida

Compound: CCC(=O)[O-].[Na+] [sodium propionate]
- enrichment of Azospirillum brasilense in agricultural soils with a native microbiome (Azospirillum brasilense): can be used to enrich Azospirillum brasilense

Compound: OC[C@H]1O[C@@H](Oc2ccc(O)cc2)[C@H](O)[C@@H](O)[C@@H]1O [arbutin, Arbutin]
- enrichment of Bacillus subtilis in agricultural soils with a native microbiome (Bacillus subtilis): can be used to enrich Bacillus subtilis

Compound: COC1OC(CO)C(O)C(O)C1O [α-methyl d-galactoside, a-Methyl-D-Galactoside]
- enrichment of Bacillus subtilis in agricultural soils with a native microbiome (Bacillus subtilis): can be used to enrich Bacillus subtilis

Compound: NCCc1ccccc1 [phenylethylamine, Phenylethylamine]
- persistence of Pseudomonas putida in agricultural soil (Pseudomonas putida [2]): persists longer
- enrichment of Pseudomonas putida in agricultural soils with native microbiome (Pseudomonas putida [1]): can be used to enrich Pseudomonas putida
- enrichment of PP in the bulk soil (P. putida KT2440 (PP); qPCR (FIG. 27)): enriched
- enrichment of PP on plant root (root colonization) (P. putida KT2440 (PP); root DNA qPCR (FIG. 28)): enriched
